Measurements reported in BindingDB's records for doi:10.1111/cbdd.12463 (University of California San Diego, 2015).

What follows are compounds tested against T1, Decaprenyl diphosphate synthase (Mycobacterium tuberculosis (strain CDC 1551 / Oshkosh), UniProt P9WFF6) (assay: DPPS Inhibition (GPP based) Assay). Settings: pH 7.5.
T1 sequence (P9WFF6 whole entry): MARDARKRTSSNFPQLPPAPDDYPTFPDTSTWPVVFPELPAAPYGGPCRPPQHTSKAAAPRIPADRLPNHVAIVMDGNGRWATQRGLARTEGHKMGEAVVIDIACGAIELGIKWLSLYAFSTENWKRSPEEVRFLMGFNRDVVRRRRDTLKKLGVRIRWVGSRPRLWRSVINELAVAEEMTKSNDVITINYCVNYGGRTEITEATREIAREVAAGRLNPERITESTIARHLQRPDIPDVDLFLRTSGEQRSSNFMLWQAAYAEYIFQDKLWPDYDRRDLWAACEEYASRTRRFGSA
Text: We screened an in-house library of 43 compounds using GPP as substrate.

Row | SMILES | IC50 [µM]
1 | CCCCCCCCOc1cccc(COc2ccc(S(=O)(=O)N3CCOCC3)cc2C(=O)O)c1 [BPH-1158] | 1.4
2 | NC(=O)c1cc(NC(=O)c2ccc(C(=O)Nc3cc(C(N)=O)cc(C4=NCCN4)c3)cc2)cc(C2=NCCN2)c1 [100873, 18] | 8.4
3 | NCCc1cccc(C#Cc2ccc(C#Cc3cccc(CCN)c3)cc2)c1 [BPH-1427] | 3.2
4 | CCCCCCCCOc1cccc(C(=O)Nc2cc(OC)c(OC)cc2C(=O)O)c1 [BPH-1294] | 0.205
5 | CCCCCCCCCCOc1cc(C(=O)Nc2ccc(S(N)(=O)=O)cc2C(=O)O)cc(C(=O)OC)c1 [BPH-1257] | 1.1
6 | CCCCCCCCOc1cccc(C(=O)Nc2cc(F)c(F)cc2C(=O)O)c1 [BPH-1455] | 0.279
7 | CCCCCCCCOc1ccc(C(=O)/C=C(\O)C(=O)O)cc1 [BPH-1330] | 20
8 | O=P(O)(O)C(O)(Cc1cccc(-c2cccc(NS(=O)(=O)c3cccc(S(=O)(=O)Nc4cccc(-c5cccc(CC(O)(P(=O)(O)O)P(=O)(O)O)c5)c4)c3)c2)c1)P(=O)(O)O [BPH-789] | 0.36
9 | CC(C)=CCC/C(C)=C/COc1ccc(C(=O)/C=C(\O)C(=O)O)cc1 [BPH-1379] | 4.1
10 | CCn1c2ccccc2c2cc(NC(=O)/C=C(\O)C(=O)O)ccc21 [BPH-1149] | 2
11 | CCCCCCC1=C(C[N+](C)(C)C)C(=O)c2ccccc2C1=O [BPH-1474] | 7
12 | CCCCCCCCCCCCCCSc1ccccc1C(=O)O [BPH-948] | 0.036
13 | CCCCCCCCOc1cccc(C(=O)N(C)c2cccc(P(=O)(O)O)c2)c1 [BPH-1433] | 0.49
14 | CCCCCCCCOc1cccc(C(=O)Nc2ccccc2P(=O)(O)O)c1 [BPH-1440] | 0.76
15 | CCCCCCCCOc1cccc(C(=O)Nc2cc(S(C)(=O)=O)ccc2C(=O)O)c1 [BPH-1467] | 0.138
16 | CCCCCCCCCCOc1cccc(C(=O)Nc2ccc(S(N)(=O)=O)cc2C(=O)O)c1 [BPH-1256] | 0.041
17 | CCCCCCCCCCOc1cccc(COc2ccccc2C(=O)O)c1 [BPH-1150] | 0.7
18 | CCCCCCCCOc1cccc(P(=O)(CC(=O)C(=O)O)OCC)c1 (stereo not given) [BPH-1389] | 2.6
19 | C/C=C\C(=C/CC(=O)Nc1ccc(OC(F)(F)F)cc1C(=O)O)OCCCCCCCC [BPH-1477] | 0.043
20 | CCCCCCCCOc1cccc(C(=O)Nc2cccc(P(=O)(O)O)c2)c1 [BPH-1432] | 0.21
21 | CCCCCCCOc1cccc(C(=O)Nc2ccccc2C(=O)O)c1 [BPH-1167] | 0.133
22 | CCCCCCCCOc1cccc(C(=O)Nc2ccc(Cl)cc2C(=O)O)c1 [BPH-1466] | 0.156
23 | CCCCCCCCCCOc1cccc(COc2ccc(S(=O)(=O)N3CCN(C(C)=O)CC3)cc2C(=O)O)c1 [BPH-1165] | 3
24 | CCCCCCCCCCCCOc1cccc(O)c1C(=O)O [BPH-1065] | 4.5
25 | O=C(/C=C/c1ccc(O)c(O)c1)OC1CC(O)(C(=O)O)CC(O)C1O (stereo not given) [BPH-1068] | 2.3
26 | CCCCCCOc1ccc(C(=O)/C=C(\O)C(=O)O)cc1 [BPH-1378] | 10
27 | CCCCCCCCCCCCCCOc1cc([N+](=O)[O-])ccc1C(=O)O [BPH-965] | 1
28 | NCCc1cc(Br)cc(C#Cc2ccc(C#Cc3cc(Br)cc(CCN)c3)cc2)c1 [BPH-1419] | 0.57
29 | O=C(Nc1ccc(CCC2=NCCN2)cc1)c1ccc(C(=O)Nc2ccc(CCC3=NCCN3)cc2)cc1 [BPH-1413] | 5.8
30 | CCCCCCCCOc1cccc(CNC(=O)/C=C(\O)C(=O)O)c1 [BPH-1305] | 6.3

What follows are compounds tested against T1, Decaprenyl diphosphate synthase (assay: DPPS Inhibition (cis FPP based) Assay). Settings: pH 7.5.
Text: We screened an in-house library of 19 compounds using cis-FPP as substrate.

Row | SMILES | IC50 [µM]
31 | CCCCCCCCOc1cccc(COc2ccc(S(=O)(=O)N3CCOCC3)cc2C(=O)O)c1 [BPH-1158] | 83
32 | CCCCCCCCCCCCCCCn1cc[n+](CC(O)(P(=O)(O)O)P(=O)(O)O)c1 [BPH-1325] | 36
33 | Cc1ccc(S(=O)(=O)N2CCN(c3ccc(C(=O)/C=C(\O)C(=O)O)cc3)CC2)cc1 [BPH-1380] | 20
34 | CCCCCCCCOc1cccc(C(=O)Nc2cc(OC)c(OC)cc2C(=O)O)c1 [BPH-1294] | 62
35 | CCCCCCCCOc1cccc(CO/C=C/C=C(\C=C\C(=O)O)S(=O)(=O)N(C)C)c1 [BPH-1152] | 83
36 | CCCCCCCCCCOc1cccc(COc2ccccc2P(=O)(O)O)c1 [BPH-1159] | 55
37 | CCCCCCCCOc1ccc(C(=O)CSCC(=O)O)cc1 [BPH-1391] | 82
38 | CCCCCCCCCCOc1cccc(CSc2ccccc2C(=O)O)c1 [BPH-1102] | 19
39 | CCCCCCCCOc1cccc(C(=O)Nc2ccc(S(N)(=O)=O)cc2C(=O)O)c1 [BPH-1255] | 65
40 | O=C(O)/C(O)=C/C(=O)c1ccc(N2CCN(C(=O)c3cccc(-c4ccccc4)c3)CC2)cc1 [BPH-1381] | 15

What follows are compounds tested against T1, Decaprenyl diphosphate synthase (assay: DPPS Inhibition (trans FPP based) Assay). Settings: pH 7.5.
Text: We screened an in-house library of 53 compounds using trans-FPP as substrate.

Row | SMILES | IC50 [µM]
41 | O=P(O)(O)C(O)(Cc1ccc(-c2cccc(NS(=O)(=O)c3ccc4ccccc4c3)c2)cc1)P(=O)(O)O [BPH-780] | 3.8
42 | O=P(O)(O)C(O)(Cc1ccc(-c2ccc(-c3ccccc3)cc2)cc1)P(=O)(O)O [BPH-626] | 51
43 | O=P(O)(O)C(O)(Cc1cccc(-c2ccc(F)cc2F)c1)P(=O)(O)O [[2-(2',4'-Difluoro-biphenyl-3-yl)-1-hydroxy-1-phosphono-ethyl]-phosphonic acid] | 4.3
44 | O=P(O)(O)C(O)(c1cccc(-c2ccccc2)c1)P(=O)(O)O [(biphenyl-3-yl-hydroxy-phosphono-methyl)-phosphonic acid] | 40
45 | O=P(O)(O)C(CCCc1ccc(-c2ccccc2)cc1)P(=O)(O)O [(4-Biphenyl-4-yl-1-phosphono-butyl)-phosphonic acid] | 1.6
46 | O=P(O)([CH2][Na])C(O)(Cc1ccc(-c2ccccc2)cc1)P(=O)(O)[CH2][Na] (stereo not given) [BPH-310] | 8.8
47 | CCCCCCCCCCCCSc1ccccc1C(=O)O [BPH-940] | 127
48 | O=P(O)(O)C(O)(Cc1cccc(-c2cccc(NS(=O)(=O)c3cccc(S(=O)(=O)Nc4cccc(-c5cccc(CC(O)(P(=O)(O)O)P(=O)(O)O)c5)c4)c3)c2)c1)P(=O)(O)O [BPH-789] | 5.4
49 | O=P(O)(O)C(O)(CCc1cccc(-c2ccccc2-c2ccccc2)c1)P(=O)(O)O [BPH-621] | 30
50 | CCCCCCCCc1cc[n+](CC(P(=O)(O)O)P(=O)(O)O)cc1 [BPH-717] | 113
51 | O=P(O)(O)C(O)(CCc1ccc(-c2ccccc2)cc1)P(=O)(O)O [BPH-665] | 13
52 | O=P(O)(O)C(O)(Cc1cccc(-c2ccc(-c3ccccc3)cc2)c1)P(=O)(O)O [{1-hydroxy-2-[3-(4-phenylphenyl)phenyl]-1-phosphonoethyl}phosphonic acid] | 31
53 | O=P(O)(O)C(Nc1cccc(-c2ccccc2)c1)P(=O)(O)O [[(Biphenyl-3-ylamino)-phosphono-methyl]-phosphonic acid] | 6.3
54 | O=C(c1ccccc1)c1ccc(OCCCCCC[n+]2ccccc2)cc1 [BPH-921] | 880
55 | O=P(O)(O)C(O)(Cc1ccc(-c2cccc(NS(=O)(=O)c3ccc(-c4ccccc4)cc3)c2)cc1)P(=O)(O)O [BPH-781] | 66
56 | O=P(O)(O)C(O)(Cc1ccc(-c2ccc(Cl)cc2)cc1)P(=O)(O)O [[2-(4'-Chloro-biphenyl-4-yl)-1-hydroxy-1-phosphono-ethyl]-phosphonic acid] | 1.5
57 | O=P(O)(O)C(C[n+]1ccc(-c2ccc(-c3ccccc3)cc2)cc1)P(=O)(O)O [BPH-632] | 498
58 | C=CC/C=C\C/C=C\CCCCCCCc1cccc(O)c1C(=O)O [6-[8(Z),11(Z),14-pentadecatrienyl]salicylic acid] | 280

Row | SMILES | IC50 [µM]
59 | O=P(O)(O)C(O)(Cc1cccc(-c2cc(F)cc(F)c2)c1)P(=O)(O)O [BPH-309] | 1.7
60 | O=P(O)(O)C(O)(Cc1cccc(-c2cccc(NS(=O)(=O)c3ccc4ccccc4c3)c2)c1)P(=O)(O)O [(1-hydroxy-2-{3-[3-(naphthalene-2-sulfonamido)phenyl]phenyl}-1-phosphonoethyl)phosphonic acid] | 8.2
61 | O=P(O)(O)C(O)(Cc1cccc(-c2ccccc2)c1)P(=O)(O)O [BPH-294] | 7.5
62 | O=P(O)(O)C(O)(CCc1cccc(-c2cccc(-c3ccccc3)c2)c1)P(=O)(O)O [BPH-622] | 55
63 | CCCCCCCCCCCCNCC(P(=O)(O)O)P(=O)(O)O [1-[(n-Dodec-1-ylamino)ethyl]1,1-bisphosphonic acid] | 370
64 | O=P(O)(O)C(Nc1ccc(-c2ccccc2)cc1)P(=O)(O)O [(biphenyl-4-ylamino)methylenediphosphonic acid] | 4.6
65 | O=P(O)(O)C(O)(CCc1cccc(-c2cccc3c2oc2ccccc23)c1)P(=O)(O)O [BPH-646] | 363
66 | O=P(O)(O)C(O)(Cc1ccc(-c2cccc(-c3ccccc3)c2)cc1)P(=O)(O)O [BPH-625] | 291
67 | O=P(O)(O)C(O)(Cc1ccc(-c2ccccc2-c2ccccc2)cc1)P(=O)(O)O [BPH-624] | 5.4
68 | O=P(O)(O)[C@@H](CCCc1cccc(Oc2ccccc2)c1)S(=O)(=O)O [BPH-652] | 113
69 | O=P(O)(O)C(CNc1cccc(-c2ccccc2)c1)P(=O)(O)O [2-(biphenyl-3-ylamino)ethane-1,1-diyldiphosphonic acid] | 17
70 | O=P(O)(O)C(O)(Cc1cccc(-c2cccc(-c3ccccc3)c2)c1)P(=O)(O)O [{1-hydroxy-2-[3-(3-phenylphenyl)phenyl]-1-phosphonoethyl}phosphonic acid] | 18
71 | O=P(O)(O)C(O)(Cc1cccc(-c2cccc(NS(=O)(=O)c3ccc(-c4ccccc4)cc3)c2)c1)P(=O)(O)O [BPH-782] | 23
72 | CCCCCCCCCCCCOc1ccc[n+](CC(P(=O)(O)O)P(=O)(O)O)c1 [BPH-716] | 77
73 | O=P(O)(O)C(O)(c1ccc(-c2ccccc2)cc1)P(=O)(O)O [(Biphenyl-4-yl-hydroxy-phosphono-methyl)-phosphonic acid] | 17
74 | O=P(O)(O)C(C[n+]1ccc(-c2cccc3c2oc2ccccc23)cc1)P(=O)(O)O [BPH-642] | 114
75 | C=CCN(C)CCCCCCCCCCCCCCCC(=O)OC [BPH-922] | 620
